Data set [1] addresses T1, AHR (Homo sapiens, UniProt P35869).
T1 sequence (P35869 11-848): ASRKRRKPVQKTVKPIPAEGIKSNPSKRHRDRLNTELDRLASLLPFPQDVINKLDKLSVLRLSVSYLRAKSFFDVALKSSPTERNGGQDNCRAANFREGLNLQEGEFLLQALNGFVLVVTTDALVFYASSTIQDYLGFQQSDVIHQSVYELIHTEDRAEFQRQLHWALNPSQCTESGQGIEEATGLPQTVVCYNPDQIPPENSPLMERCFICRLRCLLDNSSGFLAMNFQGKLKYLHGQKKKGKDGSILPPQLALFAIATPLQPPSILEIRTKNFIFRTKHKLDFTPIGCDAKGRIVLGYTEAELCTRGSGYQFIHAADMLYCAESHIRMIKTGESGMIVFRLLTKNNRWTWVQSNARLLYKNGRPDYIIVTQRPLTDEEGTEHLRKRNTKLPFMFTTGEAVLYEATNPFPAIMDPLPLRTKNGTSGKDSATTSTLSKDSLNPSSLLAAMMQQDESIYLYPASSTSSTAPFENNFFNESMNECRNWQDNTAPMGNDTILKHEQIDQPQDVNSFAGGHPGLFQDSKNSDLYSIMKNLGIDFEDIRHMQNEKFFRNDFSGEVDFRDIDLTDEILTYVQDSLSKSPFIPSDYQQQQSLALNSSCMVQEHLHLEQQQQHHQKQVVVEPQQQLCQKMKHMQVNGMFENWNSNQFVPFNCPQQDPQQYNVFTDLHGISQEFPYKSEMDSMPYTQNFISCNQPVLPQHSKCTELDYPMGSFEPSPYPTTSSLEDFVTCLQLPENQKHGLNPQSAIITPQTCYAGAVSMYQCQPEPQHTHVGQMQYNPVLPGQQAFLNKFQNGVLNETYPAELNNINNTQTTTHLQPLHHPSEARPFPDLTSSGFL
Kind of data set: CYP1B1 gene expression in human whole blood ex vivo, basal and L-kynurenine-induced. It is filed as cell-based. Details: endogenous in cells. The settings on record: Compound A concentrations >0.5 μM, basal and 20 μM L-kynurenine activated, 24 hours, 2 donors. On the procedure:
To further examine the effects of Compound A on basal and ligand-activated AHR-dependent gene expression in human immune cells, blood samples from 2 healthy human donors were exposed ex vivo to Compound A in the presence or absence of 20 μM L-kynurenine to activate AHR. After 24 hours, cells were evaluated for CYP1B1 gene expression. In whole blood samples without AHR activation, basal levels of CYP1B1 expression were inhibited by Compound A treatment in both donors (FIG. 30A). […] In both donors, Compound A concentrations >0.5 μM inhibited CYP1B1 gene expression by greater than 50% under basal and ligand activated conditions.

The target of data set [2] is T1, AHR. Briefly: Phase 1 study: pharmacodynamic modulation of AHR target genes in a whole blood assay. Conditions: all subjects in the 200 mg, 400 mg, and 800 mg cohorts. Details: endogenous in cells. The class given is in vivo. The source says: Because the starting dose and any higher dose is expected to be near or at the pharmacologically active range, each subject is required to have blood drawn and tumor biopsies for secondary and exploratory pharmacodynamic endpoints. The blood and tumor tissue samples are used to confirm AHR target engagement. Individual subjects can be exempted from the tumor biopsy requirement upon discussion and prior agreement by the Sponsor. The initial sampling strategy is based on the predicted human pharmacodynamics of this compound. If in the course of evaluating the pharmacodynamics, it is determined that an alternative sampling scheme would be more informative, then that alternative sampling scheme can be implemented if the total amount of blood, blood draws, and tumor biopsies obtained for pharmacodynamics is not increased. Moreover, the total number of samples can be decreased at any time if the initial sampling scheme is considered unnecessarily intensive.
Pharmacodynamic (PD) modulation of AHR target genes were analyzed in a whole blood assay.

The test system of data set [3] is other receptors, transporters, and kinases. Briefly: Selectivity for AHR over other receptors, transporters, and kinases. From the text:
(§1) Compound A is a selective AHR antagonist being developed as an orally administered therapeutic. […] Compound A inhibits CYP1A1 and interleukin (IL)-22 gene expression and leads to an increase in pro-inflammatory cytokines, such as IL-2 and IL-9.

The target of data set [4] is T1, AHR. Kind of data set: IL-22 secretion by CD3/CD28 activated human T cells (Meso Scale Discovery). It is filed as cell-based. Details: endogenous in cells. Conditions: 48 hours. On the procedure: AHR plays a key role in immune cells and its' inhibition is proposed to reverse immune suppression and activate T cells. The ability of Compound A to inhibit AHR-dependent CYP1A1 expression and cytokine production was assessed in primary human T cells. AHR directly regulates the expression of the immune suppressive cytokine IL-22. Human T cells isolated from healthy donor PBMCs were activated with CD3/CD28 tetramer and incubated for 24 hours with Compound A. Cell pellets were processed for RNA isolation and CYP1A1 analysis by quantitative reverse-transcriptase polymerase chain reaction. For the cytokine analysis assay, CD3/CD28 activated T cells were treated with Compound A, and culture supernatants were collected after 48 hours for analysis of IL-22 levels using Meso Scale Discovery V-plex IL-22 plates. Compound A inhibited AHR-dependent gene expression in activated human T cells by decreasing expression of CYP1A1 in a concentration-dependent manner.

The nature of data set [5]: Phase 1 dose-escalation study: interim cohort pharmacokinetics. It is filed as in vivo, human. Conditions: Cycle 2 Day 1 (C2D1). On the procedure:
Serial blood samples are obtained to characterize the plasma PK of Compound A and its major active metabolites. The initial sampling strategy is based on the predicted human PK of this compound. If in the course of evaluating the PK, it is determined that an alternative sampling scheme would be more informative, then that alternative sampling scheme may be implemented if the total amount of blood and blood draws obtained for PK is not increased. Moreover, the total number of samples may be decreased at any time if the initial sampling scheme is considered unnecessarily intensive.
Interim cohort pharmacokinetics were assessed on parent (Compound A) and two active metabolites (Compound B and Compound C). […] Compound B metabolite ratio is increased on C2D1 in cohorts above 200 mg dosages. […] Without wishing to be bound or limited by theory, elimination rate limited kinetics likely contributing to the accumulation of Compound B through on-target inhibition of CYP1A1.

Another data set relates to human T cell. Kind of data set: Human T cell assays: pro-inflammatory cytokines. The class given is cell-based.
Text: as §1

In data set [6] the target is T1, AHR. Kind of data set: HepG2 DRE-Luc reporter assay, VAF347-stimulated luciferase expression. It is filed as cell-based. Details: endogenous in cells; host or cells: HepG2 DRE-Luc reporter cell line. Conditions: 80 nM VAF347, n=2. On the procedure:
In vitro experiments were conducted to examine the inhibitory activity of Compound A for AHR-mediated transcriptional activation in the HepG2 DRE-Luc reporter cell line. This human hepatoma cell line stably expresses a luciferase reporter gene under control of AHR-responsive DRE enhancer elements (Han, 2004). HepG2 DRE-Luc reporter cells were treated with 80 nM VAF347 to activate AHR.
The inhibitory activity of the human Compound A metabolites, Compound B and Compound C was also determined in the HepG2 DRE-Luc cell line. Reporter cells were stimulated with 80 nM VAF347 and each metabolite at multiple concentrations.
For orientation: Reporter assays use an easily measured gene product as a stand-in for the process of interest.

On to `CC(C)c1cnn2c(N[C@@H]3CCc4[nH]c5ccccc5c4C3)nc(-c3cncc(F)c3)nc12` [Compound A, (R)—N-(2-(5-fluoropyridin-3-yl)-8-isopropylpyrazolo[1,5-a][1,3,5]triazin-4-yl)-2,3,4,9-tetrahydro-1H-carbazol-3-amine], for which, at AHR [1], the “inhibition of CYP1B1 gene expression” value is reported as “greater than 50%”. The “inhibition of expression of AHR target gene CYP1B1” value against AHR [2] is on record as “Robust inhibition”. The “selectivity for AHR over other receptors, transporters, and kinases” value in data set [3] is reported as “highly selective”. Further, the concentration for half-maximal inhibition (IC50) (in general, the midpoint of a concentration-inhibition curve) at AHR [4] was 7 nM; at AHR [6], 91 nM. For the same molecule, the “dose proportionality of PK” value in data set [5] was “greater than dose proportional”. Also, the “pro-inflammatory cytokines, such as IL-2 and IL-9” value in the data set on human T cell was “increase”.

Source of the values: US20230026232A1, “AHR INHIBITORS AND USES THEREOF” (Ikena Oncology, Inc., priority 2019, published 2023).
